Patent publication US8466104B2, “Therapeutically active alpha MSH analogues” (AbbVie Inc., priority 2005, dated 2013)
Read-outs that look alike come from different tables or passages of the source.

Assays:
[1] = test system: LPS induced TNF-α production by human leucocytes (PBMC); assay: Inhibition of LPS induced TNF-a production by human leucocytes in vitro (experimental setup 1); format: cell-based; details: human leucocyte suspension
Procedure: Inhibition of LPS Induced TNF-a Production by Human Leucocytes In Vitro
20 mL human blood is collected in vacutainer tubes containing EDTA. PBMC is isolated using Ficoll-Paque Plus as in Amersham's Instruction 71-7167-00 AD, 2002-06. PBMC is counted using Tryphan Blue Solution (Sigma) and incubated in RPMI 1640, (Applichem), supplemented with 10 mM Hepes (Sigma), 2 mM L-glutamin (Sigma), 0.1% BSA (Sigma) and 50U/50 μg/mL Penicillin/Streptomycin (Sigma) in the concentration 5×10^5 cells/mL. The isolated PBMC is incubated in a humidified 5% CO2, 95% air atmosphere, at 37° C., in 24 well flat-bottomed plates (Corning Incorporated) with medium, 10 ng LPS/mL (Sigma), and test compound. After 18 hours the samples are centrifuged, and TNF-α in the supernatants is measured using Tumour Necrosis Factor Alpha [(h)TNF-α] from Human Biotrak ELISA System (Amersham).
The samples are incubated as following per donor: • PBMC's in RPMI (Time Control) • PBMC's with 10 ng LPS/mL (Vehicle) • PBMC's, 10 ng LPS/mL, 10^−17M a-MSH or a-MSH analogue • PBMC's, 10 ng LPS/mL, 10^−15M a-MSH or a-MSH analogue • PBMC's, 10 ng LPS/mL, 10^−13M a-MSH or a-MSH analogue • PBMC's, 10 ng LPS/mL, 10^−11M a-MSH or a-MSH analogue • PBMC's, 10 ng LPS/mL, 10^−9M a-MSH or a-MSH analogue • PBMC's, 10 ng LPS/mL, 10^−7M a-MSH or a-MSH analogue
All samples are diluted from an initial stock solution between 1.4×10^−4M and 1.8×10^−3M. All solutions are handled in BSA coated vials in order to protect against binding of the compound to the surface of the vials.
Data is presented as mean±SE. The effect of test compounds on LPS induced TNF-a liberation is expressed as percentage of the TNF-a accumulation in the LPS-vehicle group. All comparisons are analysed with Student's unpaired t-test. Differences are considered significant at probability levels (p) of 0.05.

[2] = test system: LPS induced TNF-α in plasma; assay: Inhibition of LPS induced TNFa production in rats in vivo (experimental setup 2); design: species or system rat; details: for dose at which the maximal inhibitory effect on TNF-a is achieved: doses 50, 200, 1000 μg/kg tested
Procedure: Inhibition of LPS Induced TNFa Production in Rats In Vivo
Experimental animals. Female Wistar rats (220-240 g) are obtained from the Charles River, Sulzfeld, Germany, and housed in a temperature- (22-24° C.) and moisture-controlled (40-70%) room with a 12 h light-dark cycle (light on from 6:00 A.M. to 6:00 P.M.). The rats are maintained on a standard rodent diet with 140 mmol/kg of sodium, 275 mmol/kg potassium and 23% protein (Altromin International, Lage, Germany) and have free access to water.
Animal preparation. […] After instrumentation, the animals are housed individually for 7-10 days until the day of the experiment.
Experimental protocol. Prior to the experiments all rats are adapted to the restraining cage used for the experiments by training them for two periods of two hours each. On the day of the experiment, the animal is transferred to a restraining cage, and an intravenous infusion of vehicle solution containing 150 mM glucose is started. The infusion rate is 0.5 ml/h throughout the experiment. After a short adaptation period, infusion of lipopolysaccharide (LPS) is started. LPS (E coli serotype 0127 B8, L 3129, Sigma, St. Louis, USA) is given at a dose of 4 mg/kg body weight delivered as an i.v. infusion over 1 hour. Arterial blood samples of 0.3 ml are taken 60, 90, and 120 minutes after start of the LPS infusion and replaced immediately with heparinized blood from a normal donor rat.
In addition to LPS infusion all rats are treated with a bolus injection of: • Vehicle (0.5 mL isotonic saline); • a-MSH in one of the following doses: 50 μg/kg bw; 200 μg/kg/bw or 1000 μg/kg bw; • Test compound in one of the following doses: 50 μg/kg bw; 200 μg/kg/bw or 1000 μg/kg bw.
Measurement of TNF-α in plasma: The blood samples are collected in a prechilled test tube with 0.5 mM EDTA, pH 7.4, and 20×10^6 IU/ml aprotinin. After centrifugation at 4° C., plasma samples are transferred to pre-chilled test tubes and stored at −20° C. for later measurements of TNF-α. TNF-α in plasma is determined by an ELISA (Biotrak, Amersham, UK).
Statistical analyses. Results are presented as means±SE. A two-way ANOVA for repeated measures is used to test for differences between groups. In case of P<0.05, the differences between corresponding periods are evaluated by unpaired t-tests with Bonferroni's correction of the level of significance.

Row | Substance | dose dependent reduction of LPS induced TNF-a accumulation [1] | inhibitory effect on TNF-a accumulation compared to native a-MSH [1] | reduction of TNF-a accumulation during iv infusion of LPS [2] | inhibitory effect on plasma TNF-a compared to native a-MSH ([2]; iv LPS infusion) | TNF-a concentration in plasma, % of the maximal response (LPS-Vehicle) ([2]; iv LPS infusion, 200 μg/kg body weight iv, 120 minutes after initiation of LPS infusion) | dose at which the maximal inhibitory effect on TNF-a is achieved ([2]; iv LPS infusion) | inhibitory effect on plasma TNF-a compared to native a-MSH ([2]; iv LPS infusion, listed as SEQ ID NO: 13*) | reduction of TNF-a accumulation during iv infusion of LPS ([2]; listed as SEQ ID NO: 13*) | inhibitory effect on plasma TNF-a compared to native a-MSH ([2]; iv LPS infusion, listed as SEQ ID NO: 3*) | reduction of TNF-a accumulation during iv infusion of LPS ([2]; listed as SEQ ID NO: 3*) | inhibitory effect on plasma TNF-a compared to native a-MSH ([2]; iv LPS infusion, listed as SEQ ID NO: 17*) | reduction of TNF-a accumulation during iv infusion of LPS ([2]; listed as SEQ ID NO: 17*) | inhibitory effect on plasma TNF-a compared to native a-MSH ([2]; iv LPS infusion, listed as SEQ ID NO: 2*) | reduction of TNF-a accumulation during iv infusion of LPS ([2]; listed as SEQ ID NO: 2*)
1 | Ac-Lys-Lys-Lys-Lys-Lys-Lys-Ser-Ser-Ile-Ile-Ser-His-Phe-Arg-Trp-Gly-Lys-Pro-Val-NH2 (Ac-KKKKKKSSIISHFRWGKPV-NH2) [a-MSH analogue #4] | dose dependently reduce | markedly more pronounced | reduce TNF-a accumulation | markedly more pronounced | 12±2% | 200 μg/kg body weight | higher degree | significantly inhibit |  |  |  |  |  | 
2 | Ac-Lys-Lys-Lys-Lys-Lys-Lys-Ser-Tyr-Ser-Met-Glu-His-Phe-Arg-Trp-Gly-Lys-Pro-(D-Val)-NH2 (KKKKKKSYSMEHFRWGKPV; HELM PEPTIDE1{[ac].K.K.K.K.K.K.S.Y.S.M.E.H.F.R.W.G.K.P.[dV].[am]}$$$$V2.0; SMILES CSCC[C@H](NC(=O)[C@H](CO)NC(=O)[C@H](Cc1ccc(O)cc1)NC(=O)[C@H](CO)NC(=O)[C@H](CCCCN)NC(=O)[C@H](CCCCN)NC(=O)[C@H](CCCCN)NC(=O)[C@H](CCCCN)NC(=O)[C@H](CCCCN)NC(=O)[C@H](CCCCN)NC(C)=O)C(=O)N[C@@H](CCC(=O)O)C(=O)N[C@@H](Cc1c[nH]cn1)C(=O)N[C@@H](Cc1ccccc1)C(=O)N[C@@H](CCCNC(=N)N)C(=O)N[C@@H](Cc1c[nH]c2ccccc12)C(=O)NCC(=O)N[C@@H](CCCCN)C(=O)N1CCC[C@H]1C(=O)N[C@@H](C(N)=O)C(C)C) [a-MSH analogue #7] | dose dependently reduce | markedly more pronounced | reduce TNF-α accumulation | markedly more pronounced |  | 200 μg/kg body weight |  |  | higher degree | significantly inhibit |  |  |  | 
3 | Ac-Lys-Lys-Lys-Lys-Lys-Lys-Ser-Ser-Ile-Ile-Ser-His-(D-Phe)-Arg-Trp-Gly-Lys-Pro-Val-NH2 (KKKKKKSSIISHFRWGKPV; HELM PEPTIDE1{[ac].K.K.K.K.K.K.S.S.I.I.S.H.[dF].R.W.G.K.P.V.[am]}$$$$V2.0; SMILES CC[C@H](C)[C@H](NC(=O)[C@H](CO)NC(=O)[C@H](CO)NC(=O)[C@H](CCCCN)NC(=O)[C@H](CCCCN)NC(=O)[C@H](CCCCN)NC(=O)[C@H](CCCCN)NC(=O)[C@H](CCCCN)NC(=O)[C@H](CCCCN)NC(C)=O)C(=O)N[C@H](C(=O)N[C@@H](CO)C(=O)N[C@@H](Cc1c[nH]cn1)C(=O)N[C@H](Cc1ccccc1)C(=O)N[C@@H](CCCNC(=N)N)C(=O)N[C@@H](Cc1c[nH]c2ccccc12)C(=O)NCC(=O)N[C@@H](CCCCN)C(=O)N1CCC[C@H]1C(=O)N[C@H](C(N)=O)C(C)C)[C@@H](C)CC) [a-MSH analogue #5] | dose dependently reduce | markedly more pronounced | reduce TNF-a accumulation | markedly more pronounced |  | 200 μg/kg body weight |  |  |  |  | higher degree | significantly inhibit |  | 
4 | Ac-Glu-Glu-Glu-Glu-Glu-Glu-Ser-Tyr-Ser-Met-Glu-His-Phe-Arg-Trp-Gly-Lys-Pro-Val-NH2 (Ac-EEEEEESYSMEHFRWGKPV-NH2) [a-MSH analogue #6] | dose dependently reduce | markedly more pronounced | reduce TNF-a accumulation | markedly more pronounced |  | 200 μg/kg body weight |  |  |  |  |  |  | higher degree | significantly inhibit
